Tests used:
[1] = tested on: Ba/F3-EPOR-JAK2-V617F-expressing cells; assay: Ba/F3 cell proliferation (CellTiter Glo); assay type: cell-based, murine
Protocol: Proliferation and Drug Combination Studies. Proliferation and drug combination studies were carried out as previously described (Yang, et al., 2020, British Journal of Cancer, 122:1175-84).
As toxicities can result from small molecule targeting of both oncogenic mutated JAK2 as well as its non-mutated counterpart, a chemical genetics screen was designed and performed of a DUB-focused small molecule inhibitor library with the goal of leveraging crosstalk between phosphorylation and ubiquitination to identify DUB inhibitors able to selectively degrade mutant JAK2 while sparing wt JAK2. Of relevance, activated FLT3 can be selectively degraded over the wt enzyme by inhibition of the DUB, USP10, (Wernig, et al., 2008, Blood, 111(7):3751-9) and similar to FLT3, JAK2 is ubiquitinated in an activation-dependent manner. In brief, the library of known and novel DUB inhibitors was evaluated for ability to suppress growth of Ba/F3-EPOR-JAK2-V617F-expressing cells selectively over Ba/F3-EPOR cells growing in the presence of interleukin-3.
A broader range of compounds 1 and 2, including concentrations lower than 1 μM, were also tested on growth of EPOR-JAK2-V617F-expressing Ba/F3 cells and parental Ba/F3 EpoR+ cells (24 hours treatment on 4000 cells per well) (FIG. 18-FIG. 18B). Cell growth inhibition (FIG. 17A-FIG. 17B, FIG. 18A-FIG. 18B) was tested on Ba/F3-EPOR-JAK2-V617F (-IL-3/WEHI) and parental Ba/F3-EPOR cells (+IL-3/WEHI) plated at 2000 cells per well, at 1, 3 and 10 μM for 24 hours using the Promega CellTiter Glo® assay.

[2] = tested on: JAK2-V617F-positive primary AML patient samples; assay: AML liquid culture proliferation, primary patient samples; assay type: cell-based, human
Description: AML liquid culture proliferation and colony assay studies. Frozen vials of bone marrow from AML patients identified as harboring JAK2-V617F were previously Ficoll®-purified to obtain mononuclear cells and thawed prior to use in studies.

HEL cells = assay: HEL cell growth inhibition by fresh or aged drug stocks (stability); assay type: cell-based, human; conditions: stocks stored two to three years at −20° Celsius; 2.5, 5, 10, 20 μM, 24 hours
Protocol: Fresh or aged stocks of compounds 1 and 2 were tested for the ability to inhibit HEL cell growth at 2.5, 5, 10, and 20 μM of each drug after 24 hours (FIG. 19A-FIG. 19B).
The CellTiter Glo® assay was performed using HEL cells seeded at 1000 cells/well of a 96-well plate. The “fresh” drug stocks were obtained frozen (stored at −20° Celsius) within days of executing the proliferation experiment for which results are shown. The “aged” drug stocks were obtained from freeze-thawed stocks serially diluted and stored at −20° Celsius in the laboratory. The “aged” stocks were stored between at least two years to three years at −20° Celsius with little to no freeze-thaw cycles prior to execution of the proliferation experiment for which results are shown. “Aged” stocks may be stored for several years (e.g., at least one year, at least two years, at least three years, at least four years or more) at −20° Celsius prior to use.

**Q.** Which results are given for `Cc1noc(C)c1-c1cccc2nc(NC(=O)[C@H]3CCN(C#N)C3)sc12` [Compound 2, (S)-1-cyano-N-(7-(3,5-dimethylisoxazol-4-yl)benzo[d]thiazol-2-yl)pyrrolidine-3-carboxamide]?
**A.** killing of Ba/F3-EPOR-JAK2-V617F cells compared to wt JAK2-expressing parental Ba/F3 cells [1]: selective killing; cell growth inhibition ([1]; 1, 3 and 10 μM, 24 hours, independent experiments): inhibit growth; potency against JAK2-V617F-positive cells versus normal bone marrow cells ([2]; compound 2: 24 h treatment, ruxolitinib: FIG. 16C): higher potency exhibited against JAK2-V617F-positive cells than normal bone marrow cells; primary cell viability ([2]; starting at concentrations around 1 μM): concentration-dependent decrease in primary cell viability; stability: growth inhibition by aged stocks versus fresh stocks (HEL cells): comparable cell growth inhibition

Reference: patent US20240335427A1, “SMALL MOLECULE INHIBITION OF DEUBIQUITINATING ENZYME JOSEPHIN DOMAIN CONTAINING 1 (JOSD1) AS A TARGETED THERAPY FOR LEUKEMIAS WITH MUTANT JANUS KINASE 2 (JAK2)” (DANA-FARBER CANCER INSTITUTE, INC., priority 2021, published 2024)
